Test results reported in patent publication US11485987B2, “Methods for inducing bioorthogonal reactivity” (University of Delaware, priority 2015, dated 2022).
Residue numbers refer to the chain shown, from its start. Values belong to the compound of their own block, whether it stands above or below them.

How the values were obtained:
[1] = NIR photocatalytic oxidation/Diels-Alder/payload release (methylene blue, 660 nm LED)
Protocol: Encouraged by calculation, the inventors synthesized the compound 7, where p-nitrophenol serves as a model payload that can be readily monitored by UV and NMR (FIG. 7, panel A). To study the Diels-Alder/elimination sequence […], the inventors chose to oxidize 7 with Dess-Martin periodinane—a reagent that instantaneously oxidizes dihydrotetrazines to tetrazines. […] Upon LED irradiation (660 nm, 9.1 mW/cm^2) of 7 (28 μM) in MeOH in the presence of catalytic methylene blue (7 μM), complete oxidation/Diels-Alder/payload release within 15 minutes was observed (FIG. 7, panel B). In this photocatalytic reaction, aliquots by ESI-MS were analyzed, and intermediates 8 and 9 were not detected.
[…]. […] The reaction of 12 to produce 13 and 14 could also be promoted by irradiating a solution of 12 in 60% H2O/MeOH for 30 min with a 660 nm LED light source in the presence of catalytic amounts of methylene blue with monitoring by UV-Vis. The complete conversion to product 13 could be observed by UV-vis within 30 minutes.

APEX2 (SEQ ID NO:1) = molecular target: T1, APEX2 (SEQ ID NO:1) (Glycine max, UniProt Q43758, A134P/E112K/K14D/W41F); test: Oxidation of DHT by APEX2, UV-Vis initial rates and kinetic parameters; assay type: biochemical; details: PBS, 100 μM EDTA, first 100 s; for Initial rate of oxidation of DHT by APEX2 (SEQ ID NO: 1) + SOD: SOD 1 μM
T1 sequence (Q43758 1-250 A134P/E112K/K14D/W41F): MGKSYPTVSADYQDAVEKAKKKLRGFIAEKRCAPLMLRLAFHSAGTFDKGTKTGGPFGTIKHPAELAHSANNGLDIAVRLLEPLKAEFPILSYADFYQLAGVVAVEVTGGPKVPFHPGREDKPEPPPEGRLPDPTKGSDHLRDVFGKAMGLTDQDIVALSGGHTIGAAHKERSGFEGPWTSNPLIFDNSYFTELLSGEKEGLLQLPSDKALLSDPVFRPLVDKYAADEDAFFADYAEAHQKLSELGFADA
Protocol: (§1) UV-Vis and fluorescence measurements were conducted in quartz cuvettes. All reactions were conducted in phosphate buffered saline (PBS) containing 100 μM EDTA with a pH=7.4. The PBS was prepared by adding 25 mM phosphate salts (Na2HPO4 and NaH2PO4), 100 mM NaCl, 100 μM EDTA to DI water. EDTA was added to quench free metals that can oxidize DHT. The buffer was pH adjusted to 7.4 using 1 mM HCl and 1 mM NaOH. UV experiments were stirred at 25° C. in a temperature-controlled cuvette holder of the spectrophotometer. Solutions of 15 or 16 were prepared from methanol stock solutions.
15 or 16 (60 μM) from methanol stock solutions was added to PBS containing 100 μM EDTA. After 10s, APEX2 (SEQ ID NO:1) (275 nM) was dosed in and oxidation was monitored at 325 nm for 15 and 285 nm for 16 at 60s intervals (FIG. 10B-C).
16 (15 μM) DHT from methanol stock solutions was added to PBS containing 100 μM EDTA. After 10s, APEX2 (SEQ ID NO:1) (275 nM) or HRP (15 nM) was dosed in and oxidation was monitored at 285 nm at 10s intervals (FIG. 10D)
(§2) SOD (1 μM) was added to PBS containing 100 μM EDTA. 15 or 16 (60 μM) was added from methanol stock solutions. After 10s, APEX2 (SEQ ID NO:1) or F41A APEX2 (275 nM) was dosed in and oxidation was monitored at 325 nm for 15 and 285 nm for 16 at 60s intervals.
(§3) The initial rate of oxidation was calculated from the first 100 seconds after APEX2 (SEQ ID NO:1) or F41A APEX2 was added ([…]). In the assays where SOD was added, SOD (1 μM) was added to PBS containing 100 μM EDTA and 15 or 16 was dosed in. 10 seconds later, APEX2 (SEQ ID NO:1) or F41A APEX2 ([…]) was added and the rate of oxidation was calculated from the first 100 seconds after APEX2 (SEQ ID NO:1) or F41A APEX2 ([…]) addition. The initial rate of oxidation was adjusted to background oxidation of DHT in PBS with 100 μM EDTA. Kinetic parameters (Table 2) were determined using GraphPad's Prism 6 software from the data presented below (Table 3-4).

F41A APEX2 = molecular target: T2, F41A APEX2 (Glycine max, UniProt Q43758, A134P/E112K/K14D/W41A); test: Oxidation of DHT by F41A APEX2, UV-Vis initial rates and kinetic parameters; assay type: biochemical; details: for Initial rate of oxidation of DHT by F41A APEX2 + SOD: SOD 1 μM, PBS, 100 μM EDTA, first 100 s
T2 sequence (Q43758 1-250 A134P/E112K/K14D/W41A): T1 sequence (Q43758 1-250 A134P/E112K/K14D/W41F) with F41A
Protocol: as §1, §2, §3

[2] = Tetrazine hydrolytic stability in PBS; assay type: physicochemical; details: 800 μM, PBS buffer, 25° C.
From the text: A challenge to the development of catalytic methods for turning on the tetrazine ligation was the identification of a DHTz/Tz pair that would be stable in both oxidation states (FIG. 1, panel B). For most redox couples, either the DHTz is too readily oxidized in air (e.g., 1), or the Tz is too reactive toward water and other nucleophiles (e.g., 2). The inventors show here that the dipyridyl DHTz/Tz pair (3/4) has good stability in both states (FIG. 1, panel C). Dihydrotetrazines 3 are highly resistant toward background oxidation in organic solvents, and a number of derivatives have been synthesized and shown stable even to silica gel chromatography. […] Aqueous solutions of 3a were handled in glassware that had been first rinsed with 2.0 mM EDTA in PBS to remove adventitious metal impurities. After standing in the dark at 25° C. in PBS buffer, a solution of 3a was monitored by UV-vis and shown to retain 99 and 96% of the DHTz oxidation state over 30 min and 2.5 hours respectively. […] In PBS containing 10% mouse serum, 90% of 3a was retained in the DHTz oxidation state after 1 h. […]
Solutions (1 mL) containing 4a (800 μM) in PBS buffer were prepared in cuvettes from stock solutions. Tetrazine concentration was measured by recording the absorbance at 525 nm every 20 minutes while holding the cuvette at either 25 for 24 hours.

Structure (SMILES): CCCCN(C(=O)/C=C/Oc1ccc([N+](=O)[O-])cc1)c1cccnc1C1=NNC(c2ccccn2)=NN1 [compound 7, (E)-N-butyl-3-(4-nitrophenoxy)-N-(2-(6-(pyridin-2-yl)-1,4-dihydro-1,2,4,5-tetrazin-3-yl)pyridin-3-yl)acrylamide]
time to complete oxidation/Diels-Alder/payload release ([1]; 28 μM in MeOH, methylene blue 7 μM, LED 660 nm 9.1 mW/cm^2): ≤ 15 min

Structure (SMILES): CCCCNC(=O)C1=NNC(c2ccccn2)=NN1 [compound 16]
Initial rate of oxidation of DHT by APEX2 (SEQ ID NO: 1) + SOD (APEX2 (SEQ ID NO:1); DHT 4 μM): 0.429 +/− 0.022 ×10^−8 M/s
Initial rate of oxidation of DHT by APEX2 (SEQ ID NO: 1) (APEX2 (SEQ ID NO:1); DHT 5 μM): 0.319 +/− 0.056 ×10^−8 M/s
Initial rate of oxidation of DHT by APEX2 (SEQ ID NO: 1) (APEX2 (SEQ ID NO:1); DHT 10 μM): 0.673 +/− 0.002 ×10^−8 M/s
Initial rate of oxidation of DHT by APEX2 (SEQ ID NO: 1) + SOD (APEX2 (SEQ ID NO:1); DHT 10 μM): 1.011 +/− 0.170 ×10^−8 M/s
Initial rate of oxidation of DHT by APEX2 (SEQ ID NO: 1) (APEX2 (SEQ ID NO:1); DHT 15 μM): 0.810 +/− 0.081 ×10^−8 M/s
Initial rate of oxidation of DHT by APEX2 (SEQ ID NO: 1) + SOD (APEX2 (SEQ ID NO:1); DHT 15 μM): 1.662 +/− 0.004 ×10^−8 M/s
Initial rate of oxidation of DHT by APEX2 (SEQ ID NO: 1) (APEX2 (SEQ ID NO:1); DHT 20 μM): 1.169 +/− 0.095 ×10^−8 M/s
Initial rate of oxidation of DHT by APEX2 (SEQ ID NO: 1) (APEX2 (SEQ ID NO:1); DHT 30 μM): 1.131 +/− 0.182 ×10^−8 M/s
Initial rate of oxidation of DHT by APEX2 (SEQ ID NO: 1) + SOD (APEX2 (SEQ ID NO:1); DHT 30 μM): 2.073 +/− 0.046 ×10^−8 M/s
Initial rate of oxidation of DHT by APEX2 (SEQ ID NO: 1) (APEX2 (SEQ ID NO:1); DHT 40 μM): 1.427 +/− 0.265 ×10^−8 M/s
Initial rate of oxidation of DHT by APEX2 (SEQ ID NO: 1) + SOD (APEX2 (SEQ ID NO:1); DHT 40 μM): 2.379 +/− 0.350 ×10^−8 M/s
Initial rate of oxidation of DHT by APEX2 (SEQ ID NO: 1) (APEX2 (SEQ ID NO:1); DHT 45 μM): 1.376 +/− 0.071 ×10^−8 M/s
Initial rate of oxidation of DHT by APEX2 (SEQ ID NO: 1) + SOD (APEX2 (SEQ ID NO:1); DHT 45 μM): 2.234 +/− 0.088 ×10^−8 M/s
Initial rate of oxidation of DHT by APEX2 (SEQ ID NO: 1) (APEX2 (SEQ ID NO:1); DHT 50 μM): 1.438 +/− 0.017 ×10^−8 M/s
Initial rate of oxidation of DHT by APEX2 (SEQ ID NO: 1) + SOD (APEX2 (SEQ ID NO:1); DHT 50 μM): 2.149 +/− 0.009 ×10^−8 M/s
Initial rate of oxidation of DHT by APEX2 (SEQ ID NO: 1) + SOD (APEX2 (SEQ ID NO:1); DHT 55 μM): 2.503 +/− 0.210 ×10^−8 M/s
Initial rate of oxidation of DHT by APEX2 (SEQ ID NO: 1) (APEX2 (SEQ ID NO:1); DHT 60 μM): 1.396 +/− 0.123 ×10^−8 M/s
Initial rate of oxidation of DHT by APEX2 (SEQ ID NO: 1) + SOD (APEX2 (SEQ ID NO:1); DHT 60 μM): 2.376 +/− 0.450 ×10^−8 M/s
Initial rate of oxidation of DHT by APEX2 (SEQ ID NO: 1) + SOD (APEX2 (SEQ ID NO:1); DHT 70 μM): 2.746 +/− 0.180 ×10^−8 M/s
Initial rate of oxidation of DHT by APEX2 (SEQ ID NO: 1) (APEX2 (SEQ ID NO:1); DHT 75 μM): 1.766 +/− 0.080 ×10^−8 M/s
Initial rate of oxidation of DHT by APEX2 (SEQ ID NO: 1) (APEX2 (SEQ ID NO:1); DHT 85 μM): 1.695 +/− 0.114 ×10^−8 M/s
Initial rate of oxidation of DHT by APEX2 (SEQ ID NO: 1) + SOD (APEX2 (SEQ ID NO:1); DHT 90 μM): 2.491 +/− 0.032 ×10^−8 M/s
Initial rate of oxidation of DHT by F41A APEX2 + SOD (F41A APEX2; DHT 5 μM): 0.334 +/− 0.010 ×10^−8 M/s
Initial rate of oxidation of DHT by F41A APEX2 + SOD (F41A APEX2; DHT 10 μM): 0.642 +/− 0.035 ×10^−8 M/s
Initial rate of oxidation of DHT by F41A APEX2 + SOD (F41A APEX2; DHT 15 μM): 1.124 +/− 0.034 ×10^−8 M/s
Initial rate of oxidation of DHT by F41A APEX2 + SOD (F41A APEX2; DHT 20 μM): 2.132 +/− 0.035 ×10^−8 M/s
Initial rate of oxidation of DHT by F41A APEX2 + SOD (F41A APEX2; DHT 25 μM): 2.568 +/− 0.131 ×10^−8 M/s
Initial rate of oxidation of DHT by F41A APEX2 + SOD (F41A APEX2; DHT 30 μM): 2.129 +/− 0.076 ×10^−8 M/s
Initial rate of oxidation of DHT by F41A APEX2 + SOD (F41A APEX2; DHT 35 μM): 3.078 +/− 0.025 ×10^−8 M/s
Initial rate of oxidation of DHT by F41A APEX2 + SOD (F41A APEX2; DHT 40 μM): 2.964 +/− 0.011 ×10^−8 M/s
Initial rate of oxidation of DHT by F41A APEX2 + SOD (F41A APEX2; DHT 50 μM): 3.867 +/− 0.049 ×10^−8 M/s
Initial rate of oxidation of DHT by F41A APEX2 + SOD (F41A APEX2; DHT 55 μM): 3.709 +/− 0.336 ×10^−8 M/s
Initial rate of oxidation of DHT by F41A APEX2 + SOD (F41A APEX2; DHT 75 μM): 4.549 +/− 0.150 ×10^−8 M/s
Initial rate of oxidation of DHT by F41A APEX2 + SOD (F41A APEX2; DHT 85 μM): 5.098 +/− 0.571 ×10^−8 M/s
factor of increase of rate of catalysis versus APEX2 (SEQ ID NO:1) (F41A APEX2; F41A APEX2 mutant with SOD): 5

tetrazine fidelity ([2]; 2 h): 98%
tetrazine fidelity ([2]; 24 h): 83%
Structure (SMILES): O=C(O)CCC(=O)Nc1ccc(-c2nnc(-c3ccccn3)nn2)nc1 [4a, 4-oxo-4-((6-(6-(pyridin-2-yl)-1,2,4,5-tetrazin-3-yl)pyridin-3-yl)amino)butanoic Acid]

Structure (SMILES): COCCOCCOCCOCCOCCOCCOCCOCCOc1ccc(C2=NNC(c3ncccc3N(C)C(=O)/C=C/Oc3ccc(N(CCCl)CCCl)cc3)=NN2)nc1 [compound 12, (E)-N-(2-(6-(5-(2,5,8,11,14,17,20,23-octaoxapentacosan-25-yloxy)pyridin-2-yl)-1,4-dihydro-1,2,4,5-tetrazin-3-yl)pyridin-3-yl)-3-(4-(bis(2-chloroethyl)amino)phenoxy)-N-methylacrylamide]
time to complete conversion to product 13 ([1]; 60% H2O/MeOH, 660 nm LED, catalytic methylene blue, UV-vis): ≤ 30 min
